pEC50: −log10 of the molar value. Where two headings read alike, the source gives them in different places.
Columns and labels:
Sprague Dawley rats = assay: Observation of potential adverse behavior (behavioral signs) in the rat DC-MES studies; format: in vivo; conditions: for minimal plasma concentration provoking behavioral signs (BSC): rat; for behavioral signs concentration (BSC) / plasma EC50 ratio (Tolerability / EC50 Rat MES): rat DC-MES
Method: Animals were observed by the scientist(s) responsible for dosing for the first 30 min after dosing for and again at the time of assay (2 hr post dose) for signs of abnormal behavior.

[1] = Bioanalytical assessment of plasma and brain concentrations after mouse DC-MES assay; format: in vivo; conditions: mouse, WT mouse DC-MES acute
Method: Approximately 0.5 mL of blood was collected from each mouse at the end of the assay via cardiac puncture under deep anesthesia. The blood samples were collected in a syringe and transferred to tubes containing EDTA. Blood was stored at 4 °C until centrifuged within 30 min of collection. Plasma was harvested and placed on dry ice and stored in a freezer set to maintain a temperature of –70°C to –80°C until analysis. Brains were harvested immediately after blood collection and placed on dry ice prior to storage in a freezer set to maintain a temperature of –70°C to –80°C until analysis.
Extraction of plasma samples was carried out by protein precipitation using acetonitrile. Plasma samples (50 µL) were mixed with 50 µL of internal standard (IS) solution in water followed by addition of 10 µL of concentrated ortho-phosphoric acid and 200 µL of acetonitrile. Samples were vortexed for 30 seconds, centrifuged at 13,000 rpm for 20 min, decanted in to a 96-well plate, and further centrifuged at 4000 rpm for 20 min. The samples were analyzed by UHPLC-ESI-MS/MS as described below.
Prior to extraction, pre-weighed whole brains were homogenized in 1:1 acetonitrile/water (v/v) (4 mL per mouse brain) using an IKA T18 ULTRA-TURRAX Homogenizer at the setting of 4 for approximately 2 min. The homogenate was centrifuged at 13,000 rpm for 20 min and 50 µL of the supernatant were treated exactly as described above for plasma samples. […]
Samples were analyzed by UHPLC-ESI MS/MS using a TQ-5500 Sciex triple quadrupole mass spectrometer equipped with a Shimadzu Nexera UHPLC pump and auto-sampler system using an ACE C18 PFP, 2.50 × 50 mm, 1.7 µm particle size column and gradient elution consisting of solvent A (0.1% formic acid in water) and solvent B (0.1% formic acid in acetonitrile) starting at 20% B from 0 min to 0.4 min and then increased to 100% B from 0.4 min to 0.6 min. At 2.0 min, the mobile phase composition was switched back to […] for 1 min. The flow rate used throughout the experiment was […]. […] The UHPLC-ESI MS/MS system was controlled by Analyst 1.6.
Sample concentrations were determined using a linear calibration function, weighted 1 /X, generated by the regression of analyte to IS peak area ratios in the standard samples to their respective concentrations. Acceptance criteria for the analytical run required that the back calculated values of the standards and the QC samples fell within ±20% of their nominal values, except for the lowest standard or lower limit of quantitation (LLOQ), for which the acceptance criterion was ±25%. At least 6 out of 12 standard points had to show back-calculated values within ±20% of their nominal concentrations for the calibration to be accepted. At least three QC samples, one at each level, had to show back-calculated values within ±20% of their nominal concentrations for the whole sample batch to be valid.

[2] = test system: wild-type Sprague Dawley rats; assay: DC-Maximal electroshock seizure assay (DC-MES); format: in vivo, rat
Method: Phenytoin was formulated in physiologic saline and was administered intraperitoneally (i.p.) using a 25-gauge needle at a dose volume of 10 mL/kg. All compounds were administered 2 hr prior to electrical seizure induction for all seizure models employed in this study.
The maximal electroshock seizure (MES) assay has been extensively used in the search for anticonvulsant substances ([Löscher et al., 1991]; [Piredda et al., 1985]; [White et al., 1995]). The MES assay is sensitive to nonselective NaV inhibitors. It is considered a model for generalized tonic-clonic (GTC) seizures and provides an assessment of seizure spread. Briefly, an electroshock of direct current (DC) was delivered by corneal electrodes (Electro Convulsive Therapy Unit 57,800 from Ugo Basile). The parameters of stimulation were different between mice and rats. In CF1 mice aged 9–12 weeks, a direct current of 50 mA (60 Hz) was delivered for 0.2 s (pulse width of 0.5ms), whereas in Sprague Dawley (SD) rats aged 5–6 weeks, a direct current of 150 mA (60 Hz) was delivered for 0.3 s (pulse width of 0.5ms). Immediately prior to the electroshock, the animals’ eyes were anesthetized with a drop of Alcaine (0.5% proparacaine hydrochloride).
An animal was considered protected in the assay in the absence of a GTC with hindlimb extension and is then scored ‘0’. An animal displaying GTC with hindlimb extension was considered not protected and is then scored ‘1’. The experimenter scoring the seizure behavior was blinded to the treatment.

[3] = Bioanalytical assessment of plasma and brain concentrations after rat DC-MES assay; format: in vivo; conditions: rat, Rat DC-MES

NC(=O)N1c2ccccc2C=Cc2ccccc21 [carbamazepine, Carbamazepine, reference compound]
minimal plasma concentration provoking behavioral signs (BSC) (Sprague Dawley rats): 110 µM | concentration at 2 h ([1]; brain, oral, 10 mg/kg, Study17131, 10 mg/kg, read-out: Mean [Brain]): 18.3 µM | concentration at 2 h ([1]; brain, oral, 10 mg/kg, Study17134, 10 mg/kg, read-out: Mean [Brain]): 17.4 µM | concentration at 2 h ([1]; brain, oral, 30 mg/kg, Study17131, 30 mg/kg, read-out: Mean [Brain]): 43.1 µM | concentration at 2 h ([1]; brain, oral, 30 mg/kg, Study17134, 30 mg/kg, read-out: Mean [Brain]): 46 µM | concentration at 2 h ([1]; brain, oral, 100 mg/kg, Study17131, 100 mg/kg, read-out: Mean [Brain]): 115 µM | concentration at 2 h ([1]; plasma, oral, 10 mg/kg, Study17131, 10 mg/kg, read-out: Mean [Palsma]): 13.6 µM | concentration at 2 h ([1]; plasma, oral, 10 mg/kg, Study17134, 10 mg/kg, read-out: Mean [Palsma]): 16.6 µM | concentration at 2 h ([1]; plasma, oral, 30 mg/kg, Study17131, 30 mg/kg, read-out: Mean [Palsma]): 34.5 µM | concentration at 2 h ([1]; plasma, oral, 30 mg/kg, Study17134, 30 mg/kg, read-out: Mean [Palsma]): 52.5 µM | concentration at 2 h ([1]; plasma, oral, 100 mg/kg, Study17131, 100 mg/kg, read-out: Mean [Palsma]): 91.3 µM | Rat DC-MES Fraction of animals seizing ([2]; Study18058, 10 mg/kg): 0.857 | Rat DC-MES Fraction of animals seizing ([2]; Study18058, 20 mg/kg): 0.714 | Rat DC-MES Fraction of animals seizing ([2]; Study18068, 30 mg/kg): 0.571 | Rat DC-MES Fraction of animals seizing ([2]; Study18068, 100 mg/kg): 0.428 | Rat DC-MES Fraction of animals seizing ([2]; Study18085, 300 mg/kg): 0.285 | pEC50 ([2]; WT rat DC-MES (oral; phenytoin i.p.), read-out: plasma EC50): 4.52 | pEC50 ([2]; WT rat DC-MES, 2 hr post dose (oral; phenytoin i.p.), read-out: brain EC50): 4.44 | concentration at 2 h ([3]; brain, oral, 3 mg/kg, Study18058, 3 mg/kg, read-out: Mean [Brain]): 0.979 µM | concentration at 2 h ([3]; brain, oral, 10 mg/kg, Study18058, 10 mg/kg, read-out: Mean [Brain]): 4.24 µM | concentration at 2 h ([3]; brain, oral, 20 mg/kg, Study18058, 20 mg/kg, read-out: Mean [Brain]): 11 µM | concentration at 2 h ([3]; brain, oral, 30 mg/kg, Study18068, 30 mg/kg, read-out: Mean [Brain]): 30.4 µM | concentration at 2 h ([3]; brain, oral, 100 mg/kg, Study18068, 100 mg/kg, read-out: Mean [Brain]): 55.5 µM | concentration at 2 h ([3]; brain, oral, 300 mg/kg, Study18085, 300 mg/kg, read-out: Mean [Brain]): 79.9 µM | concentration at 2 h ([3]; plasma, oral, 3 mg/kg, Study18058, 3 mg/kg, read-out: Mean [Palsma]): 0.966 µM | concentration at 2 h ([3]; plasma, oral, 10 mg/kg, Study18058, 10 mg/kg, read-out: Mean [Palsma]): 4.27 µM | concentration at 2 h ([3]; plasma, oral, 20 mg/kg, Study18058, 20 mg/kg, read-out: Mean [Palsma]): 11.3 µM | concentration at 2 h ([3]; plasma, oral, 30 mg/kg, Study18068, 30 mg/kg, read-out: Mean [Palsma]): 24 µM | concentration at 2 h ([3]; plasma, oral, 100 mg/kg, Study18068, 100 mg/kg, read-out: Mean [Palsma]): 42.7 µM | concentration at 2 h ([3]; plasma, oral, 300 mg/kg, Study18085, 300 mg/kg, read-out: Mean [Palsma]): 65.9 µM

COC[C@@H](NC(C)=O)C(=O)NCc1ccccc1 [lacosamide, Lacosamide, reference compound]
minimal plasma concentration provoking behavioral signs (BSC) (Sprague Dawley rats): 123 µM | behavioral signs concentration (BSC) / plasma EC50 ratio (Tolerability / EC50 Rat MES) (Sprague Dawley rats): 5.0 fold | behavioral signs concentration (BSC) / plasma EC50 ratio (Tolerability / EC50 Rat MES) (Sprague Dawley rats; listed as Lacosamide): 6.3 fold | concentration at 2 h ([1]; in vivo, 3 mg/kg, Study18003, 3 mg/kg, read-out: Mean [Brain]): 3.47 µM | concentration at 2 h ([1]; in vivo, 3 mg/kg, Study18003, 3 mg/kg, read-out: Mean [Palsma]): 3.25 µM | concentration at 2 h ([1]; in vivo, 3 mg/kg, Study18053, 3 mg/kg, read-out: Mean [Brain]): 1.95 µM | concentration at 2 h ([1]; in vivo, 3 mg/kg, Study18053, 3 mg/kg, read-out: Mean [Palsma]): 6.21 µM | concentration at 2 h ([1]; in vivo, 3 mg/kg, Study18063, 3 mg/kg, read-out: Mean [Brain]): 1.26 µM | concentration at 2 h ([1]; in vivo, 3 mg/kg, Study18063, 3 mg/kg, read-out: Mean [Palsma]): 4.46 µM | concentration at 2 h ([1]; in vivo, 10 mg/kg, Study18003, 10 mg/kg, read-out: Mean [Brain]): 11.5 µM | concentration at 2 h ([1]; in vivo, 10 mg/kg, Study18003, 10 mg/kg, read-out: Mean [Palsma]): 9.52 µM | concentration at 2 h ([1]; in vivo, 30 mg/kg, Study18003, 30 mg/kg, read-out: Mean [Brain]): 34.3 µM | concentration at 2 h ([1]; in vivo, 30 mg/kg, Study18003, 30 mg/kg, read-out: Mean [Palsma]): 26.7 µM | pEC50 ([2]; Rattus norvegicus, 2 h, read-out: brain EC50): 5.37 | pEC50 ([2]; Rattus norvegicus, read-out: plasma EC50): 4.61 | Rat DC-MES Fraction of animals seizing ([2]; Study18060, 2 mg/kg): 1 | Rat DC-MES Fraction of animals seizing ([2]; Study18060, 6 mg/kg): 0.8571 | Rat DC-MES Fraction of animals seizing ([2]; Study18060, 12 mg/kg): 0.5714 | Rat DC-MES Fraction of animals seizing ([2]; Study18068, 100 mg/kg): 0 | concentration at 2 h ([3]; in vivo, 2 mg/kg, Study18060, 2 mg/kg, read-out: Mean [Brain]): 0.641 µM | concentration at 2 h ([3]; in vivo, 2 mg/kg, Study18060, 2 mg/kg, read-out: Mean [Palsma]): 2.97 µM | concentration at 2 h ([3]; in vivo, 6 mg/kg, Study18060, 6 mg/kg, read-out: Mean [Brain]): 1.78 µM | concentration at 2 h ([3]; in vivo, 6 mg/kg, Study18060, 6 mg/kg, read-out: Mean [Palsma]): 8.43 µM | concentration at 2 h ([3]; in vivo, 12 mg/kg, Study18060, 12 mg/kg, read-out: Mean [Brain]): 3.74 µM | concentration at 2 h ([3]; in vivo, 12 mg/kg, Study18060, 12 mg/kg, read-out: Mean [Palsma]): 22.9 µM | concentration at 2 h ([3]; in vivo, 100 mg/kg, Study18068, 100 mg/kg, read-out: Mean [Brain]): 38.2 µM | concentration at 2 h ([3]; in vivo, 100 mg/kg, Study18068, 100 mg/kg, read-out: Mean [Palsma]): 73.5 µM
